Experiments:
[1] = test system: fluorescently labelled DNA duplexes; test: FRET DNA melting; type: binding
Description: FRET DNA Melting FRET DNA melting studies were undertaken on 26 and 34 using a number of fluorescently labelled sequences. The sequences (FIG. 10) were designed to provide additional evidence that 26 and 34 can form inter- and intrastrand cross-links at the site 5′-XYWWYWYX-3′.
The short duplexes used in this FRET study are relatively unstable in the duplex form with a melting temperature below 30° C. so that, in the absence of ligand, a large part of the melting occurs below the starting temperature of the experiment.
Oligonucleotides were obtained from ATDbio (Southampton, UK) in lyophilised form. They were labelled with a fluorophore molecule (F=fluorescein) at the 5′-end and a quencher molecule (Q=dabcyl) at the 3′-end of the complementary strand. Each oligonucleotide was dissolved in distilled H2O to form stock solutions of 100 μM. Working solutions of 5 μM were prepared by diluting the stock solution with distilled H2O.
The following buffers were used: 250 mM phosphate buffer pH 7.4 (consisting of sodium dihydrogen phosphate and sodium phosphate diluted in distilled H2O) and 5 M sodium chloride buffer. All buffers and distilled H2O were filtered through a […] filter prior to use.
The reaction mixture was comprised of 4 μL of 250 mM phosphate buffer (final concentration of 50 mM), 4 μL flourophor and 4 μL quencher molecule of the appropriate oligonucleotide for a final concentration of 0.2 μM, 4 μL 5 M sodium chloride (final concentration of 1 M NaCl), and 4 μL of distilled H2O. This mixture was heated in an Eppendorf tube at 90° C. for 1 min and slowly cooled down to room temperature. This process was carried out to anneal the single strands to double-stranded DNA. Following this, 4 μL of the ligand was added in the desired concentration and the mixture incubated overnight either at room temperature or 4° C. […] This mixture was analysed without prior annealing.
Fluorescence melting profiles were measured using a Roche LightCycler using a total reaction volume of 20 μL. […] Annealing steps and melting steps were all recorded and changes in fluorescence were measured at 520 nm. […]

SK-BR-3 = test: MTT cytotoxicity assay, 72 hour incubation; type: cell-based; settings: Homo sapiens, 3 runs
Description: (§1) The cytotoxicity of compounds 26, 34, 50,58 and 68 were evaluated in a variety of cell lines using the standard MTT assay for a 72 hour incubation period (Table 1).
(§2) Tumor cell lines were maintained in RPMI1640 medium supplemented with 10% heat-inactivated fetal bovine serum, 2 mM L-glutamine and 1 mM sodium pyruvate. 1800 cells per well were seeded in a volume of 180 μl in a 96-well flat bottom polystyrene plate. The cells were allowed to adhere overnight at 37° C. in a CO2 incubator. Ligands were initially formulated in DMSO, and stocks stored at −80° C. They were then further formulated at lox concentration in RPMI1640 medium. 20 ul of diluted samples were added into each treatment well. On each plate, blank wells with no cells, and untreated wells containing cells, were included. Plates were then cultured at 37° C. in a CO2 incubator for 72 hrs. Cytotoxicity was evaluated using a tetrazolium salt-based assay, the MT assay. After 72 hours, the supernatant was removed from each well and 200 μl of a sterile filtered 500 μg/ml MT solution in water added to each well. The plates were then incubated at 37° C. in a CO2 incubator for 4 hrs. The supernatant was then removed and the formazan crystals formed solubilized by adding 150 μl of DMSO to each well. The plate was then read on a plate reader at 540 nm, and percentage cell survival calculated as follows: ((mean absorbance treated wells at concentration x—mean absorbance blank wells)÷(mean absorbance untreated wells at concentration x—mean absorbance blank wells))×100. Data were plotted as concentration in nM vs. % cell survival in Microsoft Excel, and IC50 values (concentration where cell survival is reduced by a half) were determined from the graph.

MCF-7 = test: MTT cytotoxicity assay, 72 hour incubation; type: cell-based; settings: Homo sapiens, MCF7, 3 runs
Description: as §1, §2

SW48 = test: MTT cytotoxicity assay, 72 hour incubation; type: cell-based; settings: Homo sapiens, SW48, 3 runs
Description: as §1, §2

SW 620 = test: MTT cytotoxicity assay, 72 hour incubation; type: cell-based; settings: Homo sapiens, SW-620, 3 runs
Description: as §1, §2

ZR 75-1 = test: MTT cytotoxicity assay, 72 hour incubation; type: cell-based; settings: Homo sapiens, 3 runs
Description: as §1, §2

With `CNS(=O)(=O)c1ccc(C2=CCN3C(=O)c4cc(OC)c(OCc5cccc(COc6cc7c(cc6OC)C(=O)N6CC=C(c8ccc(S(=O)(=O)NC)cc8)C[C@H]6C=N7)n5)cc4N=C[C@@H]3C2)cc1` [Compound 34, 4,4′-((6aS,6a′S)-((Pyridine-2,6-diylbis(methylene))bis(oxy))bis(2-methoxy-12-oxo-6a,7,10,12-tetrahydrobenzo[e]pyrido[1,2-α][1,4]diazepine-3,8-diyl))bis(N-methylbenzenesulfonamide)] the “Tm of duplex with ligand” value ([1]; 5′-AAAAAAGAGAACAAAAAA-3′ (Seq 23), interstrand cross-link) was about 71 °C, the stabilisation of duplex ([1]; 5′-AAAAAAGATCAAAAAA-3′ (Seq 12), traditional PBD binding site) was “limited stabilisation” and the “Tm of duplex with ligand” value ([1]; AAAAAAGAGAGAAAAAA-3′ (Seq 20), intrastrand cross-link) was 66 °C. The IC50 (SK-BR-3) was 0.041 nM, the IC50 (MCF-7) was 0.057 nM and the IC50 (SW48) was 0.0077 nM. The IC50 (SW 620) was 0.325 nM and the IC50 (ZR 75-1) was 0.159 nM.
